In test [1] the target is T1, ATR kinase (full-length ATR) (Homo sapiens, UniProt Q13535).
T1 construct: in the presence of 5 nM full-length ATR
Put plainly: ATR Inhibition Assay (radioactive-phosphate incorporation). The test is classed as biochemical. Conditions: Ki(app); 5 nM full-length ATR, 10 μM ATP, 800 μM target peptide, 25° C. The procedure: Compounds were screened for their ability to inhibit ATR kinase using a radioactive-phosphate incorporation assay. Assays were carried out in a mixture of 50 mM Tris/HCl (pH 7.5), 10 mM MgCl2 and 1 mM DTT. Final substrate concentrations were 10 μM [γ-33P]ATP (3 mCi 33P ATP/mmol ATP, Perkin Elmer) and 800 μM target peptide (ASELPASQPQPFSAKKK (SEQ. ID NO: 1)).
Assays were carried out at 25° C. in the presence of 5 nM full-length ATR. An assay stock buffer solution was prepared containing all of the reagents listed above, with the exception of ATP and the test compound of interest. 13.5 μL of the stock solution was placed in a 96 well plate followed by addition of 2 μL of DMSO stock containing serial dilutions of the test compound (typically starting from a final concentration of 15 μM with 3-fold serial dilutions) in duplicate (final DMSO concentration 7%). The plate was pre-incubated for 10 minutes at 25° C. and the reaction initiated by addition of 15 μL [γ-33P]ATP (final concentration 10 μM).
The reaction was stopped after […] by the addition of 30 μL 0.1M phosphoric acid containing 2 mM ATP. A multiscreen phosphocellulose filter 96-well plate (Millipore, Cat no. MAPHN0B50) was pretreated with 100 μL 0.2M phosphoric acid prior to the addition of 45 μL of the stopped assay mixture. The plate was washed with 5×200 μL 0.2M phosphoric acid. After drying, 100 μL Optiphase ‘SuperMix’ liquid scintillation cocktail (Perkin Elmer) was added to the well prior to scintillation counting (1450 Microbeta Liquid Scintillation Counter, Wallac).
After removing mean background values for all of the data points, Ki(app) data were calculated from non-linear regression analysis of the initial rate data using the Prism software package (GraphPad Prism version 3.0cx for Macintosh, GraphPad Software, San Diego Calif., USA).

The subject of test [2] is HCT116 colorectal cancer cells. Put plainly: Cisplatin Sensitization Assay (96 h cell viability MTS). Type of test: cell-based. The settings on record: concentration of compound required to reduce the IC50 of Cisplatin alone by at least 3-fold; HCT116, 96 h MTS. Here is the method:
Compounds can be screened for their ability to sensitize HCT116 colorectal cancer cells to Cisplatin using a 96 h cell viability (MTS) assay. […] Compounds and Cisplatin are then both added simultaneously to the cell media in 2-fold serial dilutions from a top final concentration of 10 μM as a full matrix of concentrations in a final cell volume of 200 μl, and the cells are then incubated at 37° C. in 5% CO2. After 96 h, 40 μl of MTS reagent (Promega G358a) is added to each well and the cells are incubated for 1 h at 37° C. in 5% CO2. Finally, absorbance is measured at 490 nm using a SpectraMax Plus 384 reader (Molecular Devices) and the concentration of compound required to reduce the IC50 of Cisplatin alone by at least 3-fold (to 1 decimal place) can be reported.

T1 sequence (Q13535 whole entry): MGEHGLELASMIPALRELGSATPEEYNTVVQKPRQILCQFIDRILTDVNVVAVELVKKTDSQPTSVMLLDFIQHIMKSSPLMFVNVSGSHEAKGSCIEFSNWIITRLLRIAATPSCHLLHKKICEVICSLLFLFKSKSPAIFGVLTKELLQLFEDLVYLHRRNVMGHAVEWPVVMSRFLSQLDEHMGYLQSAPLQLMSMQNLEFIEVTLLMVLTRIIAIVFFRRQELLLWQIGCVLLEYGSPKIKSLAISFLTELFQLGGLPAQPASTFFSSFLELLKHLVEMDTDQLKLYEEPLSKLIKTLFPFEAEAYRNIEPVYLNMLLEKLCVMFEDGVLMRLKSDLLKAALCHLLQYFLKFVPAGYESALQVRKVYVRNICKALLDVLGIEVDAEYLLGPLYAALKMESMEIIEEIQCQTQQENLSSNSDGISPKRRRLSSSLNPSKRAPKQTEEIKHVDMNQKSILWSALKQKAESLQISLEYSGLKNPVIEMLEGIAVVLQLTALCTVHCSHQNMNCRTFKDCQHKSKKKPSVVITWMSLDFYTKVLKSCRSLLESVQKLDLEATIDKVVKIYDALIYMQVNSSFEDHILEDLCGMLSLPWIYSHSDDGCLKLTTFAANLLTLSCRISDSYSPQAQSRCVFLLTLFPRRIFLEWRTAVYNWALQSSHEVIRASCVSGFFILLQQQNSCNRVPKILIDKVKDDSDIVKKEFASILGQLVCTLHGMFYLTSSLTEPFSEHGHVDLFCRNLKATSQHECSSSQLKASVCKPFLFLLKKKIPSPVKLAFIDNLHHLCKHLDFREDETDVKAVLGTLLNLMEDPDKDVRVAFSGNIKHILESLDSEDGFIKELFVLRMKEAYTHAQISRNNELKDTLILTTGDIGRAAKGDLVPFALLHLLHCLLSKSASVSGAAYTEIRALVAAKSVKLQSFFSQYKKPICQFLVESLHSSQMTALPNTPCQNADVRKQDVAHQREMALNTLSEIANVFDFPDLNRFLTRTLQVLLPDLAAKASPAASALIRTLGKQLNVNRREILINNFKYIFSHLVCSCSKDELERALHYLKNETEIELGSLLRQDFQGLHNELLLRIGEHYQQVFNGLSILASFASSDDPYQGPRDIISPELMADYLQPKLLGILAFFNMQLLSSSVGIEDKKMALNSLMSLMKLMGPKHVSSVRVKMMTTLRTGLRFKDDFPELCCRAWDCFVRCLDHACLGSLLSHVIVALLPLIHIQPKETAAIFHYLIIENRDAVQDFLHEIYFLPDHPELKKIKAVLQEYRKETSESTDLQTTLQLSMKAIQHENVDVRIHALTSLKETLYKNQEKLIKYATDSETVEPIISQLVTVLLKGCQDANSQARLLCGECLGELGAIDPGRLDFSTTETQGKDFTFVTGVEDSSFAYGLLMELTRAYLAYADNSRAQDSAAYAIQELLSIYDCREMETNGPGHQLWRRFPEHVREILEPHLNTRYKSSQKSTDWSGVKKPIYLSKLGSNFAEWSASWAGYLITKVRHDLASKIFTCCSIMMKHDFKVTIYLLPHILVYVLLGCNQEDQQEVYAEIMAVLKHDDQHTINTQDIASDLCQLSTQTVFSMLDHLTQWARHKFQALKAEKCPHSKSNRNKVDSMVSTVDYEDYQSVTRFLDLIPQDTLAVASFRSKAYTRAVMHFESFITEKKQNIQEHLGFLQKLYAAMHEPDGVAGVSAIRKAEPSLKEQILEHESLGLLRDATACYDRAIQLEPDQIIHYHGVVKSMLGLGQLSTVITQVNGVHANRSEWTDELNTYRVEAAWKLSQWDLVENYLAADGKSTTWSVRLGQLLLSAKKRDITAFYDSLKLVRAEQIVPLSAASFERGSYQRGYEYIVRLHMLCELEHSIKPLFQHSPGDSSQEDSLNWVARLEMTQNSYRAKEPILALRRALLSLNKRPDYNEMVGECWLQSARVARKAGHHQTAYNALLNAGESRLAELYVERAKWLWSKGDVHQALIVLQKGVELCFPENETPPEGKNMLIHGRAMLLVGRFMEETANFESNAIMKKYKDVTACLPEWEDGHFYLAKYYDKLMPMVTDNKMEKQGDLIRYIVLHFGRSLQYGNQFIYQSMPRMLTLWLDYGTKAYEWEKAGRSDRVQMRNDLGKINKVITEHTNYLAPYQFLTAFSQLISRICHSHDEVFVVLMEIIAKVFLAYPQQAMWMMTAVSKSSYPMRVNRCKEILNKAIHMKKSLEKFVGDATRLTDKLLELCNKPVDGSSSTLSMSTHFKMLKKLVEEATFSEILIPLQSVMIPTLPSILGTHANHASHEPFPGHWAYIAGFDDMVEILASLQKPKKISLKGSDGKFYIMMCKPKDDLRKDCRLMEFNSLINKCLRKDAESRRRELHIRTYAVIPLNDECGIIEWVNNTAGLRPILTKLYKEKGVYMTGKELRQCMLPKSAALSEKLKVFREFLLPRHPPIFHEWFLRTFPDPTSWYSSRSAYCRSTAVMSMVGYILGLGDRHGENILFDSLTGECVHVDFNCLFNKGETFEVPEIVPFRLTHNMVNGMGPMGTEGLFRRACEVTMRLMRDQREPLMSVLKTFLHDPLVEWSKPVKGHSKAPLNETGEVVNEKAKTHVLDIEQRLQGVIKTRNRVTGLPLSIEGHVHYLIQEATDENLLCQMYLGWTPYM

On to `Cc1nn(C)cc1-c1c(C)nsc1NC(=O)c1c(N)nn2cc(F)cnc12` [I-E-18, 2-amino-N-(4-(1,3-dimethyl-1H-pyrazol-4-yl)-3-methylisothiazol-5-yl)-6-fluoropyrazolo[1,5-a]pyrimidine-3-carboxamide], for which the Ki in test [1] fell in the range of 10 to 1000 nM. Also, in test [2], the “Cisplatin Sensitization Assay” value is recorded as “+++ (Compounds with a Cisplatin sensitization value of <0.02 μM are marked with “+++.”)”.
`Nc1nn2cc(F)cnc2c1C(=O)Nc1cnncc1N1CCC(CN2CCOCC2)CC1` [I-B-8, 2-amino-6-fluoro-N-(5-(4-(morpholinomethyl)piperidin-1-yl)pyridazin-4-yl)pyrazolo[1,5-a]pyrimidine-3-carboxamide]: in test [1], the Ki was in the range of 10 to 1000 nM. Moreover, the “Cisplatin Sensitization Assay” value in test [2] was “++ (Compounds with a Cisplatin sensitization value >0.02 μM but <0.2 μM are marked with “++.”)”.
With `CN1CCN(CC2CCN(c3cnncc3NC(=O)c3c(N)nn4cc(F)cnc34)CC2)CC1` [I-B-11, 2-amino-6-fluoro-N-(5-(4-((4-methylpiperazin-1-yl)methyl)piperidin-1-yl)pyridazin-4-yl)pyrazolo[1,5-a]pyrimidine-3-carboxamide], the Ki in test [1] lay within 10 to 1000 nM. In test [2], the “Cisplatin Sensitization Assay” value was “++ (Compounds with a Cisplatin sensitization value >0.02 μM but <0.2 μM are marked with “++.”)”.
Taken in the same sequence, the figures for `Nc1nn2cc(F)cnc2c1C(=O)Nc1cnncc1N1CCC(C(=O)N2CC(F)C2)CC1` [I-B-22, 2-amino-6-fluoro-N-(5-(4-(3-fluoroazetidine-1-carbonyl)piperidin-1-yl)pyridazin-4-yl)pyrazolo[1,5-a]pyrimidine-3-carboxamide] were less than 10 nM and “+++ (Compounds with a Cisplatin sensitization value of <0.02 μM are marked with “+++.”)”.
On the same counts, the results for `COc1ncncc1NC(=O)c1c(N)nn2ccc(OCCN(C)C)nc12` [I-A-16, 2-amino-5-(2-(dimethylamino)ethoxy)-N-(4-methoxypyrimidin-5-yl)pyrazolo[1,5-a]pyrimidine-3-carboxamide] are 1000 to 5000 nM and “+ (Compounds with a Cisplatin sensitization value >0.2 μM but <5 μM are marked with “+.”)”.
On to `Nc1nn2cc(F)cnc2c1C(=O)Nc1cncn1-c1cccnc1` [I-D-5, 2-amino-6-fluoro-N-(1-(pyridin-3-yl)-1H-imidazol-5-yl)pyrazolo[1,5-a]pyrimidine-3-carboxamide], for which, in test [1], the Ki is 10 to 1000 nM. In test [2], the “Cisplatin Sensitization Assay” value is recorded as “++ (Compounds with a Cisplatin sensitization value >0.02 μM but <0.2 μM are marked with “++.”)”.
On the same counts, the results for `Cc1nsc(NC(=O)c2c(N)nn3cc(F)cnc23)c1CN1CCCC1` [I-E-17, 2-amino-6-fluoro-N-(3-methyl-4-(pyrrolidin-1-ylmethyl)isothiazol-5-yl)pyrazolo[1,5-a]pyrimidine-3-carboxamide] are less than 10 nM and “+++ (Compounds with a Cisplatin sensitization value of <0.02 μM are marked with “+++.”)”.
Regarding `Cn1cncc1-c1cnncc1NC(=O)c1c(N)nn2cc(F)cnc12` [I-B-15, 2-amino-6-fluoro-N-(5-(1-methyl-1H-imidazol-5-yl)pyridazin-4-yl)pyrazolo[1,5-a]pyrimidine-3-carboxamide], in test [1], the Ki lay within 10 to 1000 nM. Besides, the “Cisplatin Sensitization Assay” value in test [2] is on record as “++ (Compounds with a Cisplatin sensitization value >0.02 μM but <0.2 μM are marked with “++.”)”.
On to `CN1CCN(C2CCN(c3cnncc3NC(=O)c3c(N)nn4cc(F)cnc34)CC2)CC1` [I-B-24, 2-amino-6-fluoro-N-(5-(4-(4-methylpiperazin-1-yl)piperidin-1-yl)pyridazin-4-yl)pyrazolo[1,5-a]pyrimidine-3-carboxamide], for which, in test [1], the Ki was 10 to 1000 nM.
Same read-out and setting: the result for `Nc1nn2cc(F)cnc2c1C(=O)Nc1cnncc1N1CCCC1` [I-B-16, 2-amino-6-fluoro-N-(5-(pyrrolidin-1-yl)pyridazin-4-yl)pyrazolo[1,5-a]pyrimidine-3-carboxamide] reads 1000 to 5000 nM.
Still for that read-out and setting: for `COc1cnccc1NC(=O)c1c(N)nn2ccc(C(F)(F)F)nc12` [I-C-4, 2-amino-N-(3-methoxypyridin-4-yl)-5-(trifluoromethyl)pyrazolo[1,5-a]pyrimidine-3-carboxamide] the value was 10 to 1000 nM.

Source of the values: US8957078B2, “Compounds useful as inhibitors of ATR kinase” (Vertex Pharmaceuticals Incorporated, priority 2013, dated 2015).
